Measured values from PMC7380940, “Alterations in the intrinsic properties of striatal cholinergic interneurons after dopamine lesion and chronic L-DOPA” (eLife, 2020).

Test system: T1, Hyperpolarization-activated cyclic nucleotide-gated (HCN) channels (native, isoform not resolved)
T1 construct: native HCN current (Ih) in striatal cholinergic interneurons, acute slices
Assay: whole-cell voltage-clamp of Ih in striatal slices, concentration-response
Type: cell-based, Mus musculus
Source text: whole-cell voltage-clamp of Ih in striatal slices, concentration-response on Hyperpolarization-activated cyclic nucleotide-gated (HCN) channels (native, isoform not resolved) | Dependence of Ih density (as measured on Figure 3E) on ZD7288 concentration.

- IC50: 1400 nM
SMILES: CC/[N+](c1ccccc1)=c1\cc(NC)n(C)c(C)n1 [ZD7288]
